Reference: paper PMC9501633, “Synthesis, Characterisation and Mechanism of Action of Anticancer 3-Fluoroazetidin-2-ones” (Pharmaceuticals, 2022)

Assays:
[1] = test system: NCI/ADR-RES; assay: NCI 60 cell line screen, Ovarian; type: cell-based, human
[2] = test system: MDA-MB-468; assay: NCI 60 cell line screen, Breast; type: cell-based, human
[3] = test system: NCI-H23; assay: NCI 60 cell line screen, NSCLung; type: cell-based, human
[4] = test system: SNB-75; assay: NCI 60 cell line screen, CNS; type: cell-based, human
[5] = test system: HCC-2998; assay: NCI 60 cell line screen, Colon; type: cell-based, human
[6] = test system: NCI-H522; assay: NCI 60 cell line screen, NSCLung; type: cell-based, human
[7] = test system: MCF-7 human breast cancer cells; assay: AlamarBlue cell viability assay; type: cell-based; conditions: Homo sapiens, MCF7, 72 h
Procedure, shortened: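 Cytotoxicity in MCF-7 cells seeded at 5 × 10^3 per well, treated after 24 h with compounds at 1 μM and 10 μM for 72 h, vehicle 1% ethanol. AlamarBlue (10% v/v) added for 3–5 h at 37 °C; fluorescence ex 530/em 590 nm, expressed as percent viability of vehicle control; IC50 from dose–response curves.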

[8] = test system: NCI-H460; assay: NCI 60 cell line screen, NSCLung; type: cell-based, human
[9] = test system: ACHN; assay: NCI 60 cell line screen, Renal; type: cell-based, human; conditions: one dose 10 µM
[10] = test system: PC-3; assay: NCI 60 cell line screen, Prostate; type: cell-based, human
[11] = test system: OVCAR-3; assay: NCI 60 cell line screen, Ovarian; type: cell-based, human
[12] = test system: RPMI-8226; assay: NCI 60 cell line screen, Leukaemia; type: cell-based, human
[13] = test system: OVCAR-8; assay: NCI 60 cell line screen, Ovarian; type: cell-based, human
[14] = test system: EKVX; assay: NCI 60 cell line screen, NSCLung; type: cell-based, human
[15] = test system: BT-549; assay: NCI 60 cell line screen, Breast; type: cell-based, human
[16] = test system: HOP-62; assay: NCI 60 cell line screen, NSCLung; type: cell-based, human
[17] = test system: UACC-62; assay: NCI 60 cell line screen, Melanoma; type: cell-based, human
[18] = test system: SF-295; assay: NCI 60 cell line screen, CNS; type: cell-based, human
[19] = test system: SR; assay: NCI 60 cell line screen, Leukaemia; type: cell-based, human
[20] = test system: KM12; assay: NCI 60 cell line screen, Colon; type: cell-based, human
[21] = test system: IGROV1; assay: NCI 60 cell line screen, Ovarian; type: cell-based, human

COc1ccc(C2C(F)C(=O)N2c2cc(OC)c(OC)c(OC)c2)cc1F (centres unmarked) [Compound 33, 3-Fluoro-4-(3-fluoro-4-methoxyphenyl)-1-(3,4,5-trimethoxyphenyl)azetidin-2-one]
GI50 ([1]; 5-dose, 48 h): 42.4 nM
TGI ([1]; 5-dose, 48 h): >100 µM
GI50 ([1]; Homo sapiens, 48 h, 5-dose): 42 nM
inhibition at 10 µM ([1]; Homo sapiens, one dose 10 µM): 91.6%
Growth % ([1]; one dose 10 µM): 8.4%
GI50 ([2]; Homo sapiens, 5-dose, 48 h): 106 nM
inhibition at 10 µM ([2]; Homo sapiens, one dose 10 µM): 77%
Growth % ([2]; one dose 10 µM): 23%
TGI ([3]; 5-dose, 48 h): >100 µM
GI50 ([3]; Homo sapiens, 5-dose, 48 h): 273 nM
inhibition at 10 µM ([3]; Homo sapiens, one dose 10 µM): 78.7%
Growth % ([3]; one dose 10 µM): 21.3%
TGI ([4]; 5-dose, 48 h): >100 µM
GI50 ([4]; Homo sapiens, 5-dose, 48 h): > 100 µM
inhibition at 10 µM ([4]; Homo sapiens, one dose 10 µM): 49.1%
Growth % ([4]; one dose 10 µM): 50.89%
TGI ([5]; 5-dose, 48 h): >100 µM
GI50 ([5]; Homo sapiens, 5-dose, 48 h): 406 nM
inhibition at 10 µM ([5]; Homo sapiens, one dose 10 µM): 67.1%
Growth % ([5]; one dose 10 µM): 32.93%
GI50 ([6]; 5-dose, 48 h): 38.3 nM
TGI ([6]; 5-dose, 48 h): >100 µM
GI50 ([6]; Homo sapiens, NCI-H522, 48 h, 5-dose, 48 h): 38 nM
inhibition at 10 µM ([6]; Homo sapiens, one dose 10 µM): 108%
Growth % ([6]; one dose 10 µM): -8.46%
viability at 1 µM ([7]; MCF-7, 1 μM, 72 h, read-out: viable cells remaining): 37%
IC50 ([7]; MCF-7, 72 h): 95 nM
TGI ([8]; 5-dose, 48 h): 91.1 µM
GI50 ([8]; Homo sapiens, 5-dose, 48 h): 356 nM
inhibition at 10 µM ([8]; Homo sapiens, one dose 10 µM): 92.9%
Growth % ([8]; one dose 10 µM): 7.06%
inhibition at 10 µM ([9]; Homo sapiens): 67.3%
Growth % [9]: 32.67%
TGI ([10]; 5-dose, 48 h): >100 µM
GI50 ([10]; Homo sapiens, 5-dose, 48 h): 42 nM
inhibition at 10 µM ([10]; Homo sapiens, one dose 10 µM): 76.9%
Growth % ([10]; one dose 10 µM): 23.13%
TGI ([11]; 5-dose, 48 h): 0.492 µM
GI50 ([11]; Homo sapiens, 5-dose, 48 h): 46.5 nM
inhibition at 10 µM ([11]; Homo sapiens, one dose 10 µM): 104%
Growth % ([11]; one dose 10 µM): -4.18%
TGI ([12]; 5-dose, 48 h): 37.3 µM
GI50 ([12]; Homo sapiens, 5-dose, 48 h): 55 nM
inhibition at 10 µM ([12]; Homo sapiens, one dose 10 µM): 84.7%
Growth % ([12]; one dose 10 µM): 15.32%
TGI ([13]; 5-dose, 48 h): >100 µM
GI50 ([13]; Homo sapiens, 5-dose, 48 h): 368 nM
inhibition at 10 µM ([13]; Homo sapiens, one dose 10 µM): 86.3%
Growth % ([13]; one dose 10 µM): 13.71%
TGI ([14]; 5-dose, 48 h): >100 µM
GI50 ([14]; Homo sapiens, 5-dose, 48 h): 203 nM
inhibition at 10 µM ([14]; Homo sapiens, one dose 10 µM): 27.8%
Growth % ([14]; one dose 10 µM): 72.16%
TGI ([15]; 5-dose, 48 h): 33.8 µM
GI50 ([15]; Homo sapiens, 5-dose, 48 h): 49.8 nM
inhibition at 10 µM ([15]; Homo sapiens, one dose 10 µM): 84.7%
Growth % ([15]; one dose 10 µM): 15.26%
TGI ([16]; 5-dose, 48 h): >100 µM
GI50 ([16]; Homo sapiens, 5-dose, 48 h): 511 nM
inhibition at 10 µM ([16]; Homo sapiens, one dose 10 µM): 68.2%
Growth % ([16]; one dose 10 µM): 31.85%
TGI ([17]; 5-dose, 48 h): >100 µM
inhibition at 10 µM ([17]; Homo sapiens, one dose 10 µM): 46.5%
Growth % ([17]; one dose 10 µM): 53.45%
TGI ([18]; 5-dose, 48 h): >100 µM
GI50 ([18]; Homo sapiens, 5-dose, 48 h): 53.5 nM
inhibition at 10 µM ([18]; Homo sapiens, one dose 10 µM): 81.4%
Growth % ([18]; one dose 10 µM): 18.61%
TGI ([19]; 5-dose, 48 h): >100 µM
GI50 ([19]; Homo sapiens, 5-dose, 48 h): 40.8 nM
inhibition at 10 µM ([19]; Homo sapiens, one dose 10 µM): 86.7%
Growth % ([19]; one dose 10 µM): 13.28%
TGI ([20]; 5-dose, 48 h): >100 µM
GI50 ([20]; Homo sapiens, 5-dose, 48 h): 59.6 nM
inhibition at 10 µM ([20]; Homo sapiens, one dose 10 µM): 89.3%
Growth % ([20]; one dose 10 µM): 10.73%
TGI ([21]; 5-dose, 48 h): >100 µM
GI50 ([21]; Homo sapiens, IGROV-1, 5-dose, 48 h): 94.6 nM
inhibition at 10 µM ([21]; Homo sapiens, IGROV-1, one dose 10 µM): 68.1%
Growth % ([21]; one dose 10 µM): 31.88%
